From PubChem BioAssay (NCI)
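Five compound concentrations were applied to cells in 96-well plates for 48 hours; endpoints were derived by simple linear interpolation of the resulting dose-response curve. At the TGI there is no net growth.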

Tests used:
Assay in all cases: inhibition of tumour cell growth, NCI panel, 48 h
A549 NSCLC = system: A549 NSCLC
COLO 205 colon = system: COLO 205 colon
HCC-2998 colon = system: HCC-2998 colon
HCT-15 colon = system: HCT-15 colon
HT29 colon = system: HT29 colon
K-562 leukemia = system: K-562 leukemia
KM12 colon = system: KM12 colon
LOX IMVI melanoma = system: LOX IMVI melanoma
MDA-MB-435 = system: MDA-MB-435
MOLT-4 leukemia = system: MOLT-4 leukemia
NCI-H226 lung = system: NCI-H226 lung
RPMI-8226 leukemia = system: RPMI-8226 leukemia
RXF 393 renal = system: RXF 393 renal
SF-268 CNS = system: SF-268 CNS
SF-295 CNS = system: SF-295 CNS
SK-MEL-5 melanoma = system: SK-MEL-5 melanoma
UACC-257 melanoma = system: UACC-257 melanoma
OVCAR-3 ovarian = system: OVCAR-3 ovarian

Row | SMILES | TGI (A549 NSCLC) [µM] | TGI (COLO 205 colon) [µM] | TGI (HCC-2998 colon) [µM] | TGI (HCT-15 colon) [µM] | TGI (HT29 colon) [µM] | TGI (K-562 leukemia) [µM] | TGI (KM12 colon) [µM] | TGI (LOX IMVI melanoma) [µM] | TGI (MDA-MB-435) [µM] | TGI (MOLT-4 leukemia) [µM] | TGI (NCI-H226 lung) [µM] | TGI (RPMI-8226 leukemia) [µM] | TGI (RXF 393 renal) [µM] | TGI (SF-268 CNS) [µM] | TGI (SF-295 CNS) [µM] | TGI (SK-MEL-5 melanoma) [µM] | TGI (UACC-257 melanoma) [µM] | TGI (OVCAR-3 ovarian) [µM]
1 | CCOC(=O)C1=c2[nH]c3cccc4cccc(c43)n2C(=O)CC1c1ccccc1 (centres undefined) | > 100 | > 100 | > 100 | > 100 | > 100 | > 100 | > 100 | > 100 | > 100 | > 100 | > 100 | > 100 | > 100 | > 100 | > 100 | > 100 | > 100 | 
2 | O=C1CCCC(=O)N1n1c(Cc2ccccc2)n[nH]c1=O | > 100 | > 100 |  | > 100 | > 100 | > 100 | > 100 | > 100 | > 100 | > 100 | > 100 | > 100 | > 100 | > 100 | > 100 | > 100 | > 100 | > 100
3 | O=C(COc1ccc(OCC(=O)NNC2=NC(c3cc(F)c(Cl)cc3Cl)CS2)c(Cl)c1)NNC1=NC(c2cc(F)c(Cl)cc2Cl)CS1 (centres undefined) | 28.6 | > 100 |  | 36 | 59.3 | > 100 | > 100 | 5.15 | 44.6 | > 100 | 46 | > 100 | 60.9 |  | 71.6 |  | > 100 | 
4 | COC1=CC(=O)c2c(cc(COP(=O)(OCC3OC(n4cc(F)c(=O)[nH]c4=O)CC3O)N(C)CCCCCl)n2C)C1=O (centres undefined) | 6.27 | > 39.8 |  | > 86.4 | > 40.7 | > 95.9 | 97.9 | 14.7 | 5 | > 54 | 47.1 | > 19.8 | 4.71 | 16.1 | 1.36 | 1.34 | > 47.5 | 14.5
5 | Cc1c(/C=N/NC(=S)Nc2ccccc2)c(=O)n(-c2ccccc2)n1C |  | > 100 | > 100 | > 100 | > 100 | > 100 | > 100 | > 100 | > 100 | > 100 | > 100 | > 100 | > 100 | > 100 | > 100 | > 100 | > 100 | 
6 | O=c1cc(N2CCCC2)[nH]c(=O)n1-c1ccc(F)cc1 | > 100 | > 100 | > 100 | > 100 | > 100 | > 100 | > 100 | > 100 | > 100 | > 100 | 50.8 | > 100 | > 100 | > 100 | > 100 |  | > 100 | > 100
7 | Cc1cc(C)nc(SCC(=O)OC2CC(C)CCC2C(C)C)n1 (centres undefined) | 63.4 | 31 |  | 43.8 | 39.9 | 52.2 | 42.7 | 37.5 | 58.3 | 38.6 |  | 41.3 | 32 | > 100 | 31.6 | 29 | 41.7 | 28.5
8 | O=C(CC(C(=O)c1cccs1)c1cccs1)c1ccccc1Cl (centres undefined) | > 100 | > 100 | > 100 | > 100 | > 100 | > 100 | > 100 | > 100 | > 100 | > 100 | > 100 | > 100 |  | > 100 | > 100 | > 100 | > 100 | 
9 | CO/C(=C/C(=O)C(Cl)(Cl)Cl)CC/C(=C\C(=O)C(Cl)(Cl)Cl)OC | > 100 | > 100 |  | 73.1 | 85.3 | > 100 | 98.9 | 41.5 | 53.4 | > 100 |  | 70.9 | 34.7 | > 100 | > 100 | > 100 | 43.8 | 67.7
10 | C=CCc1cc(C=C(C#N)C#N)cc(OC)c1O | > 100 | > 100 |  | > 100 | > 100 | > 100 | > 100 | > 100 | > 100 | > 100 | > 100 | > 100 | > 100 |  | > 100 | > 100 | > 100 | > 100
11 | O=C(NNC(=S)Nc1ccc(Br)cc1)c1cc(-c2ccccc2)nc2ccccc12 | 58 | 53 | 30.8 | 66.9 | 82.4 | 89.8 | > 100 |  | 43.2 | 52.9 | 73.7 | 53.7 | 40.4 | > 100 | 38.3 | 30.5 | 61.4 | 33.1
12 | O=c1c(C2=NCCC2)c(-c2ccc[nH]2)[nH]n1-c1ccccc1 | > 100 | > 100 |  | > 100 | > 100 | > 100 | > 100 | > 100 | > 100 | > 100 | > 100 | > 100 | > 100 | > 100 | > 100 | > 100 | > 100 | > 100
13 | CCOC(=O)C1C(c2ccc(O)c(OC)c2)c2c([nH][nH]c2=O)CC1(C)O (centres undefined) | > 100 | > 100 | > 100 | > 100 | > 100 |  | > 100 | > 100 | > 100 | > 100 |  | > 100 |  | > 100 | > 100 | > 100 | > 100 | > 100
14 | NNC1=N/C(=C\c2ccco2)C(=O)N1 | > 100 | > 100 | > 100 | > 100 | > 100 | > 100 | > 100 | > 100 | > 100 | > 100 | > 100 | > 100 |  |  | > 100 | > 100 | > 100 | > 100
15 | CC(=O)Nc1ccc(-c2nc3ccccc3s2)cc1C |  | > 100 | > 100 | > 100 | > 100 |  | > 100 | > 100 | > 100 | > 100 | > 100 | > 100 | > 100 | > 100 | > 100 | > 100 | > 100 | 
16 | Nn1c(CCCCCCCCc2nnc(COc3ccccc3)n2N)nnc1COc1ccccc1 | > 100 | > 100 | > 100 | > 100 | > 100 | > 100 | > 100 | > 100 | > 100 | > 100 | > 100 | > 100 | > 100 | > 100 | > 100 | > 100 | > 100 | 
17 | CCCCc1ccc(-n2sc3ncc([N+](=O)[O-])cc3c2=O)cc1 | 27.3 | 32.3 | 27.6 | 28.4 | 26.7 |  | 25.4 | 26.1 | 52.3 | 53.7 | 51.4 | 32.5 |  | 37.1 | 27 | 27.7 | 50.9 | 46.1
18 | CC1CCCCN1CC(=O)c1ccc2c(c1)Sc1ccccc1O2 (centres undefined) | 30.7 | > 100 | 41.3 | 45.2 | 22.7 | > 100 | 30.3 | 38.7 | 29.8 | > 100 | 26.4 | > 100 | 31.1 | 34.2 | 33 |  | 39 | 27.8
19 | S=C(N/N=C/c1ccccn1)Nc1ccc(Cl)cc1 | > 65.4 | > 100 | > 57.7 | > 100 | > 100 |  | > 100 | > 35.3 | > 100 | > 100 | 3.33 | > 26.4 |  | > 45.7 | > 91.7 | 15.5 | > 100 | > 100
20 | CCCCCCCNC(P(=O)(O)O)P(=O)(O)O | > 100 | > 100 | > 100 | > 100 | > 100 | > 100 | > 100 | > 100 | > 100 | > 100 | > 100 | > 100 |  | > 100 | > 100 | > 100 | > 100 | > 100
21 | COC(=O)c1ccc(NCc2c(O)ccc(O)c2Br)cc1Cl | > 100 | 33.4 | 39.4 | 35.9 | 40.2 |  | 31 | 27.3 | 26.5 | 40.9 | > 100 | > 100 |  | 41.2 | 35 | 34.6 | 83.8 | 20.9
22 | COC1(OC)N=C(N)C2(C#N)C3(C(=O)N(C(C)C)N=C3C)C12C#N (centres undefined) | > 100 | > 100 | > 100 | > 100 | > 100 | > 100 | > 100 |  | > 100 | > 100 | > 100 | > 100 | > 100 | > 100 | > 100 |  | > 100 | > 100
23 | O=c1c2ccccc2nc2n1C(c1ccc([N+](=O)[O-])cc1)C2(c1ccccc1)c1ccccc1 (centres undefined) | > 100 | > 100 |  | > 100 | > 100 |  | > 100 | > 100 | > 100 | > 100 |  | > 100 | > 100 | > 100 | > 100 | > 100 | > 100 | > 100
24 | Cc1c(-c2ccccc2)c(C#N)c2nnn(C3CCCCC3)c(=O)n12 | > 100 | > 100 | > 100 | > 100 | > 100 | > 100 | > 100 | > 100 | > 100 |  | > 100 | > 100 | 71.7 | > 100 | > 100 | > 100 | > 100 | > 100
25 | COC(=O)C(Cc1ccccc1)NP(=O)(O)OCC1OC(n2cc(I)c(=O)[nH]c2=O)CC1O (centres undefined) | > 100 | > 100 |  | > 100 | > 100 | > 100 | > 100 | > 100 | > 100 | > 100 | > 100 | > 100 |  | > 100 | > 100 | > 100 | > 100 | > 100
26 | Cc1cc(C)c2c(c1)C1=NCCN1C2(O)c1ccc(Cl)cc1 (centres undefined) | 35.5 | 29 |  | 32.4 | 31.5 | 65 | 30 | 93.4 | 32.5 | > 100 |  | 33.2 | 27.6 | 31 | 31.4 | 27.7 | 31.9 | 31.4
27 | COC(=O)C1(C(=O)OC)N=C(C)OC1c1ccccn1 (centres undefined) | > 100 | > 100 | > 100 | > 100 |  | > 100 | > 100 | > 100 | > 100 | > 100 | > 100 | > 100 | > 100 |  | > 100 | > 100 | > 100 | > 100
28 | CC(=O)Oc1c2c(c(CC=C(C)C)c3c1C(=O)C1=C[C@@H]4CC5C(C)(C)OC(C/C=C(/C)C(=O)O)(C4=O)[C@@]15O3)OC(C)(CCC=C(C)C)C=C2 (some centres undefined) | 0.999 | 0.421 | 1.62 | 0.978 | 0.598 |  | 0.897 | 0.247 | 0.348 | 32 | 0.834 | 0.538 | 0.336 | 1.56 | 1.67 | 0.737 | 1.36 | 0.922
